IC50 and Activity data for 23 molecules are collected here from ChEMBL document CHEMBL1136189, “Thiourea inhibitors of herpes viruses. Part 1: bis-(aryl)thiourea inhibitors of CMV” (Bioorg Med Chem Lett, 2003).

For one test, the system named is Human betaherpesvirus 5. Description: Inhibitory concentration against human cytomegalovirus (CMV) in cultured human foreskin fibroblast (HFF) cells. As to conditions: Human betaherpesvirus 5, HFF. In kind it is functional, organism-based.
The next test relates to Human alphaherpesvirus 2. Description: Inhibitory concentration against Herpes simplex virus (HSV). In kind it is functional, organism-based.
The next test deals with Human alphaherpesvirus 3. Description: Inhibitory concentration against Varicella zoster virus (VZV). In kind it is functional, organism-based.
Test [1] can be described thus: MTS cellular toxicity was determined. It is filed as functional.

Values after ≈ are worked out from the molar mass of the structure shown.

With `O=C(Nc1ccc(/N=C(\S)Nc2cc(C(F)(F)F)cc(C(F)(F)F)c2)cc1)c1cscn1`, the IC50 (as a rule, the concentration needed to halve the response being measured) in the test on Human betaherpesvirus 5 is 0.008 µg/mL (≈ 0.0163 µM); in the test with Human alphaherpesvirus 2, above 10 µg/mL; in the test on Human alphaherpesvirus 3 it was above 10 µg/mL.

As for `O=C(Nc1ccc(NC(=S)Nc2ccccc2)cc1)c1ccco1`, the IC50 was 0.3 µg/mL (≈ 0.889 µM) with Human betaherpesvirus 5, above 10 µg/mL in the test on Human alphaherpesvirus 2 and above 10 µg/mL in the test with Human alphaherpesvirus 3.

As to `Cc1cccc(N/C(S)=N/c2ccc(NC(=O)c3ccco3)cc2)c1`, the IC50 was 0.06 µg/mL (≈ 0.171 µM) with Human betaherpesvirus 5, above 10 µg/mL with Human alphaherpesvirus 2 and above 10 µg/mL in the test on Human alphaherpesvirus 3.

As for `O=C(Nc1ccc(/N=C(\S)Nc2cc(C(F)(F)F)cc(C(F)(F)F)c2)cc1)c1csnn1`, the IC50 was 0.02 µg/mL (≈ 0.0407 µM) in the test with Human betaherpesvirus 5, above 10 µg/mL in the test with Human alphaherpesvirus 2 and above 10 µg/mL with Human alphaherpesvirus 3.

Consider `O=C(Nc1ccc(/N=C(\S)Nc2ccc(F)c(Cl)c2)cc1)c1ccco1`, for which the IC50 in the test with Human betaherpesvirus 5 is 0.06 µg/mL (≈ 0.154 µM); in the test with Human alphaherpesvirus 2 it was above 10 µg/mL; in the test on Human alphaherpesvirus 3, above 10 µg/mL.

Take `CCC(=O)Nc1ccc(N/C(S)=N/c2cc(Cl)c(OC)cc2OC)cc1`: the IC50 in the test with Human alphaherpesvirus 2 was 3 µg/mL (≈ 7.62 µM); with Human alphaherpesvirus 3 it was above 10 µg/mL. The Activity in test [1] was above 10 µg/mL.

As to `COc1cc(OC)c(N/C(S)=N/c2ccc(NC(=O)c3ccco3)c(OC)c2)cc1Cl`, the IC50 with Human betaherpesvirus 5 is above 10 µg/mL; with Human alphaherpesvirus 2, 8 µg/mL (≈ 17.3 µM); in the test with Human alphaherpesvirus 3, above 10 µg/mL.

For `O=C(Nc1ccc(/N=C(\S)Nc2cc(C(F)(F)F)cc(C(F)(F)F)c2)cc1)c1ccco1`, the IC50 was 0.04 µg/mL (≈ 0.0845 µM) in the test on Human betaherpesvirus 5, above 10 µg/mL in the test on Human alphaherpesvirus 2 and 7 µg/mL (≈ 14.8 µM) in the test on Human alphaherpesvirus 3.

With `O=C(Nc1ccc(/N=C(\S)Nc2ccc(Cl)c(C(F)(F)F)c2)cc1)c1ccco1`, the IC50 in the test with Human betaherpesvirus 5 is 0.03 µg/mL (≈ 0.0682 µM); in the test on Human alphaherpesvirus 2, above 10 µg/mL; in the test with Human alphaherpesvirus 3 it was above 10 µg/mL.

`O=C(Nc1ccc(/N=C(\S)Nc2cc(C(F)(F)F)cc(C(F)(F)F)c2)cc1)c1cocn1`: the IC50 with Human betaherpesvirus 5 is 0.03 µg/mL (≈ 0.0632 µM); in the test with Human alphaherpesvirus 2, above 10 µg/mL; in the test on Human alphaherpesvirus 3, above 10 µg/mL.

With `COc1cc(OC)c(N/C(S)=N/c2cc(OC)c(NC(=O)c3ccco3)cc2OC)cc1Cl`, the IC50 in the test with Human betaherpesvirus 5 is above 10 µg/mL; in the test on Human alphaherpesvirus 2, above 10 µg/mL; in the test on Human alphaherpesvirus 3, 4 µg/mL (≈ 8.13 µM).

Consider `O=C(Nc1ccc(/N=C(\S)Nc2ccc(C(F)(F)F)c(Cl)c2)cc1)c1ccccn1`, for which the IC50 in the test with Human betaherpesvirus 5, in the test on Human alphaherpesvirus 2 and in the test on Human alphaherpesvirus 3 was above 10 µg/mL throughout.

In the case of `COc1cc(OC)c(N/C(S)=N/c2ccc(NC(=O)c3ccco3)cc2C)cc1Cl`, the IC50 in the test on Human betaherpesvirus 5 is 0.6 µg/mL (≈ 1.35 µM); with Human alphaherpesvirus 2 it was above 10 µg/mL; in the test with Human alphaherpesvirus 3, above 10 µg/mL.

Consider `COc1cc(OC)c(N/C(S)=N/c2ccc(NC(=O)c3ccco3)cc2C(F)(F)F)cc1Cl`, for which the results for the half-maximal inhibitory concentration (IC50) in the test with Human betaherpesvirus 5, with Human alphaherpesvirus 2 and with Human alphaherpesvirus 3 were 2 µg/mL (≈ 4 µM), 2.5 µg/mL (≈ 5 µM) and above 10 µg/mL, respectively. In test [1], this molecule yielded an Activity above 10 µg/mL.

`COc1cc(OC)c(N/C(S)=N/c2ccc(NC(=O)c3ccco3)c(C)c2)cc1Cl`: the IC50 in the test on Human betaherpesvirus 5, with Human alphaherpesvirus 2 and in the test with Human alphaherpesvirus 3 was above 10 µg/mL each time. The molecule also showed an Activity in test [1] above 10 µg/mL.

Turning to `O=C(Nc1ccc(/N=C(\S)Nc2ccc(C(F)(F)F)c(Cl)c2)cc1)c1cscn1`, the IC50 was 0.006 µg/mL (≈ 0.0131 µM) with Human betaherpesvirus 5, above 10 µg/mL in the test on Human alphaherpesvirus 2 and above 10 µg/mL with Human alphaherpesvirus 3.

With `O=C(Nc1ccc(/N=C(\S)Nc2cccc(C(F)(F)F)c2)cc1)c1ccco1`, the results for the IC50 in the test with Human betaherpesvirus 5, with Human alphaherpesvirus 2 and in the test with Human alphaherpesvirus 3 were 0.06 µg/mL (≈ 0.148 µM), above 10 µg/mL and above 10 µg/mL, respectively.

`COc1cc(OC)c(N/C(S)=N/c2ccc(NC(=O)c3ccco3)cc2)cc1Cl`: the IC50 in the test with Human betaherpesvirus 5 is 0.2 µg/mL (≈ 0.463 µM); with Human alphaherpesvirus 2, above 10 µg/mL; in the test with Human alphaherpesvirus 3, above 10 µg/mL. Also, the Activity in test [1] is above 10 µg/mL.

As to `COc1cc(OC)c(N/C(S)=N/c2ccc(NC(=O)c3ccco3)cc2C#N)cc1Cl`, the IC50 in the test with Human betaherpesvirus 5, in the test with Human alphaherpesvirus 2 and in the test on Human alphaherpesvirus 3 was above 10 µg/mL each time. Besides, the Activity in test [1] was above 10 µg/mL.

For `COc1cc(OC)c(N/C(S)=N/c2ccc(NC(=O)c3ccccc3)cc2)cc1Cl`, the IC50 with Human betaherpesvirus 5 is 4 µg/mL (≈ 9.05 µM); in the test on Human alphaherpesvirus 2, 0.3 µg/mL (≈ 0.679 µM); in the test with Human alphaherpesvirus 3 it was above 10 µg/mL. The same molecule gave an Activity in test [1] above 10 µg/mL.

In the case of `O=C(Nc1ccc(/N=C(\S)Nc2ccc(C(F)(F)F)c(Cl)c2)cc1)c1cocn1`, the IC50 is 0.02 µg/mL (≈ 0.0454 µM) in the test with Human betaherpesvirus 5, above 10 µg/mL with Human alphaherpesvirus 2 and above 10 µg/mL in the test with Human alphaherpesvirus 3.

Regarding `COc1cc(OC)c(N/C(S)=N/c2ccc(NC(C)=O)cc2)cc1Cl`, the IC50 in the test on Human betaherpesvirus 5 is 45 µg/mL (≈ 118 µM); with Human alphaherpesvirus 2, 3 µg/mL (≈ 7.9 µM); with Human alphaherpesvirus 3, above 10 µg/mL. Also, in test [1], the Activity is above 10 µg/mL.

On to `Cc1ccc(N/C(S)=N/c2ccc(NC(=O)c3ccco3)cc2)cc1Cl`, for which the IC50 is 0.09 µg/mL (≈ 0.233 µM) in the test on Human betaherpesvirus 5, above 10 µg/mL in the test with Human alphaherpesvirus 2 and above 10 µg/mL in the test with Human alphaherpesvirus 3.
